From ChEMBL document CHEMBL1201862, “PubChem BioAssay data set” (2004)
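All cell lines were grown in 96-well plates and treated with compound for 48 hours. GI50 marks 50% less growth.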 Active and inactive are the calls of the source. No stated cut-off is given here; in the data, active = GI50 up to about 1.1 µM and inactive = higher.

Tests used:
Assay in all cases: NCI anticancer screen, dose series, 48 h
M14 = test system: M14
SF-268 = test system: SF-268
EKVX = test system: EKVX
SK-MEL-2 = test system: SK-MEL-2
OVCAR-8 = test system: OVCAR-8
UO-31 = test system: UO-31
DU-145 = test system: DU-145
HCC 2998 = test system: HCC 2998
CAKI-1 = test system: CAKI-1
HOP-92 = test system: HOP-92
HCT-116 = test system: HCT-116
K562 = test system: K562
UACC-257 = test system: UACC-257
U-251 = test system: U-251
OVCAR-3 = test system: OVCAR-3
NCI-H522 = test system: NCI-H522
CCRF-CEM = test system: CCRF-CEM
MOLT-4 = test system: MOLT-4
MDA-N = test system: MDA-N
NCI-H23 = test system: NCI-H23

Compound | GI50 (M14) | GI50 (SF-268) | GI50 (EKVX) | GI50 (SK-MEL-2) | GI50 (OVCAR-8) | GI50 (UO-31) | GI50 (DU-145) | GI50 (HCC 2998) | GI50 (CAKI-1) | GI50 (HOP-92) | GI50 (HCT-116) | GI50 (K562) | GI50 (UACC-257) | GI50 (U-251) | GI50 (OVCAR-3) | GI50 (NCI-H522) | GI50 (CCRF-CEM) | GI50 (MOLT-4) | GI50 (MDA-N) | GI50 (NCI-H23)
CC(C)(C)N1CC1CNC(=O)C(=O)NCC1CN1C(C)(C)C (stereo not given) | 3.61 µM (inactive) | 3.03 µM (inactive) | 14.2 µM (inactive) | 5.33 µM (inactive) | 1.79 µM (inactive) | 6.61 µM (inactive) | 7.62 µM (inactive) | 3.16 µM (inactive) | 6.31 µM (inactive) | 9.51 µM (inactive) | 3.97 µM (inactive) | 3.79 µM (inactive) | 5.05 µM (inactive) | 3.05 µM (inactive) | 4.62 µM (inactive) | 1.31 µM (inactive) | 0.665 µM (active) | 1.57 µM (inactive) | 25.8 µM (inactive) | 2.74 µM (inactive)
Oc1cc(-c2ccccc2)cn2c1nc1ccccc12 | 0.9 µM (active) | 3.92 µM (inactive) | > 94.2 µM (inactive) | 2.11 µM (inactive) | 2.42 µM (inactive) | 2.64 µM (inactive) | 4.55 µM (inactive) | 4.68 µM (inactive) | 2.91 µM (inactive) | > 25.5 µM (inactive) | 0.767 µM (active) | 0.525 µM (active) | > 63.5 µM (inactive) | 2.51 µM (inactive) | 1.22 µM (inactive) | 0.243 µM (active) | 3.4 µM (inactive) | 3.44 µM (inactive) | 0.253 µM (active) | 6.37 µM (inactive)
O=C1C=C(Br)c2c(Br)sc(Br)c21 | 4.54 µM (inactive) | 18.5 µM (inactive) | 18 µM (inactive) | 20.7 µM (inactive) | 3.9 µM (inactive) | 3.4 µM (inactive) | 14.9 µM (inactive) | 13.8 µM (inactive) | 12 µM (inactive) | 3 µM (inactive) | 6.05 µM (inactive) | 4.67 µM (inactive) | 1.89 µM (inactive) | 13.9 µM (inactive) | 13.4 µM (inactive) | 2.07 µM (inactive) | 1.59 µM (inactive) | 2.77 µM (inactive) | 13.9 µM (inactive) | 10.6 µM (inactive)
Clc1ccc(-c2nnc(C34CC5CC(CC(C5)C3)C4)o2)cc1 | > 100 µM (inactive) | > 100 µM (inactive) | > 100 µM (inactive) | > 100 µM (inactive) | > 100 µM (inactive) | 3.78 µM (inactive) | > 100 µM (inactive) | > 100 µM (inactive) | > 100 µM (inactive) | > 100 µM (inactive) | > 100 µM (inactive) | > 100 µM (inactive) | > 100 µM (inactive) | > 100 µM (inactive) | > 100 µM (inactive) | > 100 µM (inactive) | > 100 µM (inactive) | > 100 µM (inactive) | > 100 µM (inactive) | > 100 µM (inactive)
Clc1ccc(/C=C/c2nc3ccccc3s2)cc1Cl | 36.5 µM (inactive) | 42.8 µM (inactive) | 51.8 µM (inactive) | > 10 µM (inactive) | 47.8 µM (inactive) | 22.1 µM (inactive) | > 100 µM (inactive) | 97.3 µM (inactive) | 19.8 µM (inactive) | 18.9 µM (inactive) | 19.5 µM (inactive) | > 100 µM (inactive) | > 100 µM (inactive) | 25.7 µM (inactive) | 50.6 µM (inactive) | > 100 µM (inactive) | > 100 µM (inactive) | > 100 µM (inactive) | 70.5 µM (inactive) | 94 µM (inactive)
O=c1[nH]c(=O)n(C2COC(CO)C2O)cc1F (stereo not given) | 50.6 µM (inactive) | 64.3 µM (inactive) | 89.9 µM (inactive) | 61.4 µM (inactive) | 57 µM (inactive) | 14.6 µM (inactive) | 29.8 µM (inactive) | 8.73 µM (inactive) | > 100 µM (inactive) | 50.8 µM (inactive) | 9.98 µM (inactive) | 56.5 µM (inactive) | 60.4 µM (inactive) | 72.9 µM (inactive) | 15.5 µM (inactive) | 43.7 µM (inactive) | 74.8 µM (inactive) | 39 µM (inactive) | 25.2 µM (inactive) | 15.1 µM (inactive)
O=c1c2ccccc2sc2nc(CCl)nn12 | 22 µM (inactive) | 20.2 µM (inactive) | 16 µM (inactive) | 48.4 µM (inactive) | > 100 µM (inactive) | 8.28 µM (inactive) | 7.78 µM (inactive) | 13.3 µM (inactive) | 7.82 µM (inactive) | 3.62 µM (inactive) | 4.75 µM (inactive) | 2.32 µM (inactive) | 14 µM (inactive) | > 96.8 µM (inactive) | > 100 µM (inactive) | 44.8 µM (inactive) | > 100 µM (inactive) | 97.5 µM (inactive) | 4.94 µM (inactive) | 7.59 µM (inactive)
Cc1cc(O)c2cc3c(O)c(O)ccc3cc2c1 | 2.86 µM (inactive) | 1.07 µM (active) | 2.12 µM (inactive) | 0.895 µM (active) | 0.743 µM (active) | 0.7 µM (active) | 3.91 µM (inactive) | 0.817 µM (active) | 2.08 µM (inactive) | 2.61 µM (inactive) | 0.494 µM (active) | 1.04 µM (active) | 3.2 µM (inactive) | 0.42 µM (active) | 0.46 µM (active) | 0.789 µM (active) | 1.27 µM (inactive) | 1.03 µM (active) | 2.18 µM (inactive) | 1.24 µM (inactive)
COC(=O)C1=CSC2(S1)C(C(=O)OC)=CSc1c2ssc1=O (stereo not given) | 2.5 µM (inactive) | 2.69 µM (inactive) | 5.98 µM (inactive) | 1.96 µM (inactive) | 2.34 µM (inactive) | 1.84 µM (inactive) | 1.73 µM (inactive) | 3.01 µM (inactive) | 2.11 µM (inactive) | 2.07 µM (inactive) | 1.61 µM (inactive) | 1.95 µM (inactive) | 1.87 µM (inactive) | 1.54 µM (inactive) | 1.81 µM (inactive) | 1.49 µM (inactive) | 0.762 µM (active) | 1.97 µM (inactive) | 2.13 µM (inactive) | 2 µM (inactive)
C/C=C/C=C/c1nc(C#N)c(N)o1 | > 100 µM (inactive) | > 100 µM (inactive) | > 100 µM (inactive) | > 100 µM (inactive) | > 100 µM (inactive) | 18.3 µM (inactive) | > 100 µM (inactive) | > 100 µM (inactive) | > 100 µM (inactive) | > 100 µM (inactive) | > 100 µM (inactive) | > 100 µM (inactive) | > 100 µM (inactive) | > 100 µM (inactive) | > 100 µM (inactive) | 41.6 µM (inactive) | 7.08 µM (inactive) | 63.8 µM (inactive) | > 100 µM (inactive) | > 100 µM (inactive)
